Measurements reported in US20240254118A1, “PRMT5 INHIBITORS AND USES THEREOF” (Gilead Sciences, Inc., priority 2022, published 2024).

Experiments:
[1] = system: SDMA signal (PRMT5 inhibition) in HCT116 MTAP-deleted cells; assay: Symmetric di-methyl arginine image-based high content screen assay (SDMA assay), HCT116 MTAP-deleted; format: cell-based; settings: SDMA assay; for EC50: Homo sapiens, HCT-116, 72 h, 3 days of treatment, cell line not given, taken as HCT116 MTAP-deleted, read-out: EC50 (SDMA assay); for EC50 selectivity (SDMA assay): taken as HCT116 WT versus MTAP-deleted
Experimental: Symmetric di-methyl arginine image-based high content screen assay (SDMA assay) was performed in HCT116 WT and HCT116 MTAP-deleted cell lines to measure Symmetric Di-methyl Arginine (SDMA) signal reduction after selective PRMT5 inhibition in the MTAP-deleted cells.
Briefly, the same compound plates were generated as mentioned in the previous section of Cell viability assay on Day −1.
On Day 3, the cells were fixed by adding 45 μl of 8% neutralized formalin solution to each well using EL460 liquid dispenser 5 μl cassette and the cells were incubated for 30 minutes at room temperature. The formalin solution was washed off with […] phosphate buffered saline (dPBS), the 0.1% Triton X-100 solution in dPBS was used to permeabilize the cells for 15 minutes at room temperature. The triton solution was aspirated, 50 μl of Odyssey Blocking buffer+0.05% Tween20 was added and the plate was incubated at room temperature for 30 minutes.
The blocking solution was removed, a 20 μl of SDMA antibody (Cell Signaling Technology, Cat no. 13222) diluted 1:500 in Odyssey Blocking buffer+0.05% Tween20 was added and the plate was incubated at 4° C. overnight. Next day, the primary SDME antibody solution was washed from each well three times with 0.05% Tween20 in dPBS (PBST).
A 30 μl of the secondary antibody, a Goat anti-Rabbit Alexa Fluor Plus 488 (Invitrogen, Cat no. PIA32731) was diluted 1:500 in Odyssey Blocking buffer+0.05% Tween20 and the plate was incubated for 1.5 hours in dark at room temperature. The secondary antibody solution was removed, 30 μl of 5 mg/ml DAPI solution diluted 1:2000 in dPBS was added and the plate was incubated for 30 minutes in dark at room temperature. The DAPI solution was aspirated and the wells were washed six times with dPBS.
The SDMA signal and DAPI signal per cell were counted using a Cellomics CX7 LZR instrument reading under 488 and 405 nm laser, respectively. The SDMA signal was quantified by mean average intensity per cell from Alexa Fluor Plus 488 after the cell was defined with DAPI.

[2] = system: HCT116 MTAP-deleted cells; assay: Cell viability assay (CellTiter-Glo, 7 days), HCT116 MTAP-deleted; settings: Homo sapiens, HCT-116, 168 h
Experimental: Control compounds were analyzed in parallel each time for quality control.
In Brief, on Day −1, a serial dilution of stock compounds in DMSO was performed using BioMek liquid handlers and dispensed using Echo acoustic dispenser into 384 well plates. Both tool compounds and sample compounds were spotted in the same plate for a dose response of PRMT5 inhibitors. Compound plates were stored as frozen until the cells were ready for seeding.
On Day 0, 100 HCT WT or HCT116 MTAP-deleted cells were seeded in compound-containing 384 well plates (50 μl per well) in RPMI 1640 media supplemented with 10% heat inactivated fetal bovine serum, Glutamax and penicillin streptomycin using EL460 liquid dispenser 5 μl cassette (BioTek, part no. 7170011). After equilibrating the plate in room temperature, the cells were incubated for 7 days inside the sealed incubator set at 37 °C with 90% humidity and 5% CO2.
On Day 7, the viability of cells was measured using a CTG assay kit (CellTitre-Glo; Promega cat no. G7573). Shortly, 40 μl per well of luminescent cell viability assay reagent were dispensed using EL460 liquid dispenser 5 μl cassette. CTG luminescence signal was measured using an EnVision plate reader (PerkinElmer) in accordance with manufacturer's instruction. The CC50 values for each compound after 7 days of treatment were calculated using 4 parameter non-linear logistical curve fit.

SMILES	EC50 [1] [nM]	EC50 selectivity (SDMA assay) [1]	CC50 [2] [nM]
Cn1ncc2c(N)nc3ccc(C(=O)N(Cc4ccc(C(F)(F)F)cn4)N4CCCC(F)(F)C4)cc3c21 [Example 21, 4-amino-N-(3,3-difluoro-1-piperidyl)-1-methyl-N-[[5-(trifluoromethyl)-2-pyridyl]methyl]pyrazolo[4,3-c]quinoline-8-carboxamide]	< 1	90	< 100
Cn1ncc2c(N)nc3ccc(C(=O)N(Cc4ccc(C(F)(F)F)cn4)N4CCC(F)(F)CC4)cc3c21 [Example 22, 4-amino-N-(4,4-difluoro-1-piperidyl)-1-methyl-N-[[5-(trifluoromethyl)-2-pyridyl]methyl]pyrazolo[4,3-c]quinoline-8-carboxamide]	1 to 5	260	< 100
CN(c1ncccn1)N(Cc1ccc(C(F)(F)F)cn1)C(=O)c1ccc2nc(N)c3cnn(C)c3c2c1 [Example 23, 4-amino-N′, 1-dimethyl-N′-(pyrimidin-2-yl)-N-((5-(trifluoromethyl)pyridin-2-yl)methyl)-1H-pyrazolo[4,3-c]quinoline-8-carbohydrazide]	< 1	18	< 100
CN(c1ncccn1)N(Cc1ccc(C(F)(F)F)cn1)C(=O)c1ccc2nc(N)c3ccccc3c2c1 [Example 24, 6-amino-N′-methyl-N′-(pyrimidin-2-yl)-N-((5-(trifluoromethyl)pyridin-2-yl)methyl)phenanthridine-2-carbohydrazide]	< 1	87	< 100
CN(c1ccccn1)N(Cc1ccc(C(F)(F)F)cn1)C(=O)c1ccc2nc(N)c3cnn(C)c3c2c1 [Example 25, 4-amino-N′, 1-dimethyl-N′-(2-pyridyl)-N-[[5-(trifluoromethyl)-2-pyridyl]methyl]pyrazolo[4,3-c]quinoline-8-carbohydrazide]	1 to 5	26	< 100
Cn1ncc2c(N)nc3ccc(C(=O)N(Cc4ccc(C(F)(F)F)cn4)N4CCCC4=O)cc3c21 [Example 26, 4-amino-1-methyl-N-(2-oxopyrrolidin-1-yl)-N-[[5-(trifluoromethyl)-2-pyridyl]methyl]pyrazolo[4,3-c]quinoline-8-carboxamide]	1 to 5	85	< 100
Cn1ncc2c(N)nc3ccc(C(=O)N(Cc4ccc(C(F)(F)F)cn4)N4CCCC4)cc3c21 [Example 27, 4-amino-1-methyl-N-pyrrolidin-1-yl-N-[[5-(trifluoromethyl)-2-pyridyl]methyl]pyrazolo[4,3-c]quinoline-8-carboxamide]	< 1	94	< 100
Cn1ncc2c(N)nc3ccc(C(=O)N(Cc4ccc(C(F)(F)F)cn4)N4CCCCC4)cc3c21 [Example 28, 4-amino-1-methyl-N-(1-piperidyl)-N-[[5-(trifluoromethyl)-2-pyridyl]methyl]pyrazolo[4,3-c]quinoline-8-carboxamide]	< 1	134	< 100
Cn1ncc2c(N)nc3ccc(C(=O)N(Cc4ccc(C(F)(F)F)cn4)N4CCCCC4=O)cc3c21 [Example 29, 4-amino-1-methyl-N-(2-oxo-1-piperidyl)-N-[[5-(trifluoromethyl)-2-pyridyl]methyl]pyrazolo[4,3-c]quinoline-8-carboxamide]	< 1	43	< 100
Nc1nc2ccc(C(=O)N(Cc3ccc(C(F)(F)F)cn3)N3CCCCC3=O)cc2c2c1COC2 [Example 30, 4-amino-N-(2-oxo-1-piperidyl)-N-[[5-(trifluoromethyl)-2-pyridyl]methyl]-1,3-dihydrofuro[3,4-c]quinoline-8-carboxamide]	< 1	101	< 100
Cn1ncc2c(N)nc3ccc(C(=O)N(Cc4ccc(C(F)(F)F)cn4)N4CCC(C)(C)CC4=O)cc3c21 [Example 31, 4-amino-N-(4,4-dimethyl-2-oxo-1-piperidyl)-1-methyl-N-[[5-(trifluoromethyl)-2-pyridyl]methyl]pyrazolo[4,3-c]quinoline-8-carboxamide]	1 to 5	323	< 100

The next lines start with results.

EC50 [1] [nM]	EC50 selectivity (SDMA assay) [1]	SMILES	CC50 [2] [nM]
< 1	74	CN1CCN(N(Cc2ccc(C(F)(F)F)cn2)C(=O)c2ccc3nc(N)c4cnn(C)c4c3c2)C1=O [Example 32, 4-amino-1-methyl-N-(3-methyl-2-oxo-imidazolidin-1-yl)-N-[[5-(trifluoromethyl)-2-pyridyl]methyl]pyrazolo[4,3-c]quinoline-8-carboxamide]	< 100
< 1	73	CC(=O)N(C)N(Cc1ccc(C(F)(F)F)cn1)C(=O)c1ccc2nc(N)c3cnn(C)c3c2c1 [Example 33, N′-acetyl-4-amino-N′, 1-dimethyl-N-[[5-(trifluoromethyl)-2-pyridyl]methyl]pyrazolo[4,3-c]quinoline-8-carbohydrazide]	< 100
1 to 5	8	CC(=O)N(C)N(Cc1ccc(C(F)(F)F)cn1)C(=O)c1cc2c(cc1F)nc(N)c1cnn(C)c12 [Example 34, N′-acetyl-4-amino-7-fluoro-N′, 1-dimethyl-N-[[5-(trifluoromethyl)-2-pyridyl]methyl]pyrazolo[4,3-c]quinoline-8-carbohydrazide]	< 100
< 1	103	Cn1ncc2c(N)nc3ccc(C(=O)N(Cc4ccc(C(F)(F)F)cn4)N4Cc5ccccc5C4=O)cc3c21 [Example 35, 4-amino-1-methyl-N-(1-oxoisoindolin-2-yl)-N-[[5-(trifluoromethyl)-2-pyridyl]methyl]pyrazolo[4,3-c]quinoline-8-carboxamide]	< 100
< 1	30	Cn1ncc2c(N)nc3ccc(C(=O)N(Cc4ccc(C(F)(F)F)cn4)N4CCc5ccccc5C4=O)cc3c21 [Example 36, 4-amino-1-methyl-N-(1-oxo-3,4-dihydroisoquinolin-2-yl)-N-[[5-(trifluoromethyl)-2-pyridyl]methyl]pyrazolo[4,3-c]quinoline-8-carboxamide]	< 100
1 to 5	141	CN(C(=O)c1ccccc1)N(Cc1ccc(C(F)(F)F)cn1)C(=O)c1ccc2nc(N)c3cnn(C)c3c2c1 [Example 37, 4-amino-N′-benzoyl-N′, 1-dimethyl-N-[[5-(trifluoromethyl)-2-pyridyl]methyl]pyrazolo[4,3-c]quinoline-8-carbohydrazide]	100 to 1000
< 1	12	CCOC(=O)N(C)N(Cc1ccc(C(F)(F)F)cn1)C(=O)c1ccc2nc(N)c3cnn(C)c3c2c1 [Example 38, ethyl N-[(4-amino-1-methyl-pyrazolo[4,3-c]quinoline-8-carbonyl)-[[5-(trifluoromethyl)-2-pyridyl]methyl]amino]-N-methyl-carbamate]	< 100
< 1	25	CC(=O)N(C)N(Cc1ccc(C(F)(F)F)cc1F)C(=O)c1ccc2nc(N)c3cnn(C)c3c2c1 [Example 39, N′-acetyl-4-amino-N-[[2-fluoro-4-(trifluoromethyl)phenyl]methyl]-N′,1-dimethyl-pyrazolo[4,3-c]quinoline-8-carbohydrazide]	< 100
< 1	8	CC(=O)N(C)N(Cc1ccc(C(F)(F)F)cc1F)C(=O)c1cc2c(cc1F)nc(N)c1cnn(C)c12 [Example 40, N′-acetyl-4-amino-7-fluoro-N-[[2-fluoro-4-(trifluoromethyl)phenyl]methyl]-N′,1-dimethyl-pyrazolo[4,3-c]quinoline-8-carbohydrazide]	< 100
< 1	46	CCC(=O)N(C)N(Cc1ccc(C(F)(F)F)cn1)C(=O)c1ccc2nc(N)c3cnn(C)c3c2c1 [Example 41, 4-amino-N′, 1-dimethyl-N′-propanoyl-N-[[5-(trifluoromethyl)-2-pyridyl]methyl]pyrazolo[4,3-c]quinoline-8-carbohydrazide]	< 100
< 1	14	CCC(=O)N(C)N(Cc1ccc(C(F)(F)F)cn1)C(=O)c1cc2c(cc1F)nc(N)c1cnn(C)c12 [Example 42, 4-amino-7-fluoro-N′, 1-dimethyl-N′-propanoyl-N-[[5-(trifluoromethyl)-2-pyridyl]methyl]pyrazolo[4,3-c]quinoline-8-carbohydrazide]	< 100
